From PMC10150354, “Linearization of the Brevicidine and Laterocidine Lipopeptides Yields Analogues That Retain Full Antibacterial Activity” (Journal of Medicinal Chemistry, 2023)
Values after ≈ are worked out from the molar mass of the structure shown. Where a SMILES comes first, the peptide text is derived from it. [ ]: non-standard residue; d: D form. The star is where a group is joined. ξ: configuration not given here. Octanoyl(7-Me) = CC(C)CCCCCC(=O)*; Hexanoyl(4ξ-Me) = CCC(C)CCC(=O)*; dOrn = NCCC[C@@H](N)C(=O)O; Orn = NCCC[C@H](N)C(=O)O

Legend:
[1] = tested on: S. aureus USA300; type: cell-based, Staphylococcus aureus; conditions: microbroth dilution per CLSI, MHB, 18 h at 37 °C, visual inspection, three technical replicates
In short: (§1)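 CLSI broth microdilution in MHB, polypropylene plates; log-phase bacteria (OD600 ~0.5, grown in TSB, with kanamycin for the E. coli ATCC 25922 MCR-1 strain) added at 2 × 10^5 CFU/mL. Read visually after 18 h at 37 °C with shaking; MIC = lowest concentration preventing visible growth, three technical replicates.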

[2] = tested on: A. baumannii ATCC 17961; type: cell-based, Acinetobacter baumannii; conditions: microbroth dilution per CLSI, MHB, 18 h at 37 °C, visual inspection, three technical replicates
In short: as §1

[3] = tested on: E. coli ATCC 25922; type: cell-based, Escherichia coli; conditions: for Antibacterial activity (MIC) E. coli ATCC 25922: microbroth dilution per CLSI, MHB, 18 h at 37 °C, visual inspection, three technical replicates
In short: as §1

[4] = tested on: E. coli (MCR-1); type: cell-based, Escherichia coli; conditions: microbroth dilution per CLSI, MHB, 18 h at 37 °C, visual inspection, three technical replicates, E. coli 25922 carrying mcr-1
In short: as §1

[5] = tested on: P. aeruginosa PAO1; type: cell-based, Pseudomonas aeruginosa; conditions: microbroth dilution per CLSI, MHB, 18 h at 37 °C, visual inspection, three technical replicates
In short: as §1

[6] = tested on: K. pneumoniae ATCC 13883; type: cell-based, Klebsiella pneumoniae; conditions: microbroth dilution per CLSI, MHB, 18 h at 37 °C, visual inspection, three technical replicates
In short: as §1

SMILES	Antibacterial activity (MIC) S. aureus USA300 [1] [µg/mL]	Antibacterial activity (MIC) A. baumannii ATCC 17961 [2] [µg/mL]	MIC (µg/mL) against E. coli (ATCC 25922) ([3]; (Supplement 2)) [µg/mL]	Antibacterial activity (MIC) E. coli ATCC 25922 [3] [µg/mL]	Antibacterial activity (MIC) E. coli (MCR-1) [4] [µg/mL]	Antibacterial activity (MIC) P. aeruginosa PAO1 [5] [µg/mL]	Antibacterial activity (MIC) K. pneumoniae ATCC 13883 [6] [µg/mL]
CCC(C)CCC(=O)N[C@H](CC(N)=O)C(=O)N[C@H](Cc1ccc(O)cc1)C(=O)N[C@H](Cc1c[nH]c2ccccc12)C(=O)N[C@H](CCCN)C(=O)N[C@@H](CCCN)C(=O)NCC(=O)N[C@H](CCCN)C(=O)N[C@@H](Cc1c[nH]c2ccccc12)C(=O)N[C@@H](CC(=O)O)C(=O)N[C@H](C(=O)NCC(N)=O)[C@@H](C)CC (stereo partly shown) [Δ12LB (Asp9)-NH2 (63)] ({Hexanoyl(4ξ-Me)}-[dN][dY][dW][dOrn][Orn]G[dOrn]WDIG-NH2)	>32	>32	4 (≈ 2.73 µM)	>32	>32	4	>32
CCC(C)CCC(=O)N[C@H](CC(N)=O)C(=O)N[C@H](Cc1ccc(O)cc1)C(=O)N[C@H](Cc1c[nH]c2ccccc12)C(=O)N[C@H](CCCN)C(=O)N[C@@H](CCCN)C(=O)NCC(=O)N[C@H](CCCN)C(=O)N[C@@H](Cc1c[nH]c2ccccc12)C(=O)N[C@H](C(=O)N[C@H](C(N)=O)[C@@H](C)CC)[C@@H](C)O (stereo partly shown) [Δ11–12LB-NH2 (11)] ({Hexanoyl(4ξ-Me)}-[dN][dY][dW][dOrn][Orn]G[dOrn]WTI-NH2)	>32	8		4	4 to 8	2	2
CC[C@H](C)[C@H](NC(=O)[C@@H](NC(=O)[C@H](Cc1c[nH]c2ccccc12)NC(=O)[C@@H](CCCN)NC(=O)CNC(=O)[C@H](CCCN)NC(=O)[C@@H](CCCN)NC(=O)[C@@H](Cc1c[nH]c2ccccc12)NC(=O)[C@@H](Cc1ccc(O)cc1)NC(=O)[C@@H](CO)NC(=O)CCCCCC(C)C)[C@@H](C)O)C(N)=O [Δ11–13LL-NH2 (12)] ({Octanoyl(7-Me)}-[dS][dY][dW][dOrn][Orn]G[dOrn]WTI-NH2)	32	4		4	4	4	2
CC[C@H](C)[C@H](NC(=O)[C@@H](NC(=O)[C@H](Cc1c[nH]c2ccccc12)NC(=O)[C@@H](CCCN)NC(=O)CNC(=O)[C@H](C)NC(=O)[C@@H](CCCN)NC(=O)[C@@H](Cc1c[nH]c2ccccc12)NC(=O)[C@@H](Cc1ccc(O)cc1)NC(=O)[C@@H](CO)NC(=O)CCCCCC(C)C)[C@@H](C)O)C(=O)N[C@@H](CC(N)=O)C(=O)NCC(=O)NCC(N)=O [LL(Ala5)-NH2 (33)] ({Octanoyl(7-Me)}-[dS][dY][dW][dOrn]AG[dOrn]WTINGG-NH2)	>32	>32		32	>32	32	>32
CC[C@H](C)[C@H](NC(=O)[C@@H](NC(=O)[C@H](Cc1c[nH]c2ccccc12)NC(=O)[C@@H](CCCN)NC(=O)CNC(=O)[C@H](CCCN)NC(=O)[C@@H](CCCN)NC(=O)[C@@H](Cc1c[nH]c2ccccc12)NC(=O)[C@@H](Cc1ccc(O)cc1)NC(=O)[C@@H](CO)NC(=O)CCCCCC(C)C)[C@@H](C)O)C(=O)N[C@@H](CC(N)=O)C(=O)N[C@@H](C)C(=O)NCC(N)=O [LL(Ala12)-NH2 (40)] ({Octanoyl(7-Me)}-[dS][dY][dW][dOrn][Orn]G[dOrn]WTINAG-NH2)	>32	8		8	8	8	8
